Data set [1] has as its target Src (Homo sapiens (Human), UniProt P12931). As to the kind of experiment: Kinase assay (33P FlashPlate) Src. The settings on record: read-out: IC50 Src (n = 1); Table 1, n = 1.
Experimental: (§1) FlashPlates from Perkin Elmer (Boston, Mass., USA) with a 50 μl reaction volume are used. The reaction cocktail was pipetted in 4 steps in the following order: 15 μl of ATP solution (in H2O), 20 μl of assay buffer (see below), 5 μl of test sample in 10% DMSO, 10 μl of enzyme/substrate mixture (in H2O). […] Certain assays also contained 1 mM CaCl2, 4 mM EDTA, 5 μg/ml Phosphatidylserine and 1 μg/ml 1.2-Dioleyl-glycerol. The MYLK2, CAMK1D, CAMK2A, CAMK2B, CAMK2D, CAMK4, CAMKK2, DAPK2 and EEF2K assays additionally contained 1 μg/ml Calmodulin and 0.5 mM CaCl2. The PRKG1 and PRKG2 assays additionally contained 1 μM cGMP. Recombinant Protein Kinases: All protein kinases were expressed in Sf9 insect cells or in E. coli as recombinant GST-fusion proteins or His-tagged proteins. All kinases were produced from human cDNAs, except JAK2, for which the mouse cDNA was used. […] The purity of the protein kinases was examined by SDS-PAGE/coomassie staining. The identity of the protein kinases was checked by mass spectroscopy. Assays were made under license from Chemicon International Inc. for JAK2. […] The reaction was stopped with 50 μl of 2% (v/v) H3PO4, plates were aspirated and washed two times with 200 μl 0.9% (w/v) NaCl. All assays were performed with a BeckmanCoulter Biomek 2000/SL robotic system.
The target in data set [2] is B-Raf V600E (Homo sapiens (Human), UniProt P15056, V600E). As to the kind of experiment: Kinase assay (33P FlashPlate) B-Raf V600E. To be noted: read-out: IC50 B-Raf V600E (n = 1); Table 1, n = 1.
Experimental: as §1
Data set [3] deals with VEGFR-2 (Homo sapiens (Human), UniProt P35968). As to the kind of experiment: Kinase assay (33P FlashPlate) VEGFR-2. The settings on record: read-out: IC50 VEGFR-2 (n = 1); Table 1, n = 1.
Sequence of VEGFR-2 (P35968 20-1356): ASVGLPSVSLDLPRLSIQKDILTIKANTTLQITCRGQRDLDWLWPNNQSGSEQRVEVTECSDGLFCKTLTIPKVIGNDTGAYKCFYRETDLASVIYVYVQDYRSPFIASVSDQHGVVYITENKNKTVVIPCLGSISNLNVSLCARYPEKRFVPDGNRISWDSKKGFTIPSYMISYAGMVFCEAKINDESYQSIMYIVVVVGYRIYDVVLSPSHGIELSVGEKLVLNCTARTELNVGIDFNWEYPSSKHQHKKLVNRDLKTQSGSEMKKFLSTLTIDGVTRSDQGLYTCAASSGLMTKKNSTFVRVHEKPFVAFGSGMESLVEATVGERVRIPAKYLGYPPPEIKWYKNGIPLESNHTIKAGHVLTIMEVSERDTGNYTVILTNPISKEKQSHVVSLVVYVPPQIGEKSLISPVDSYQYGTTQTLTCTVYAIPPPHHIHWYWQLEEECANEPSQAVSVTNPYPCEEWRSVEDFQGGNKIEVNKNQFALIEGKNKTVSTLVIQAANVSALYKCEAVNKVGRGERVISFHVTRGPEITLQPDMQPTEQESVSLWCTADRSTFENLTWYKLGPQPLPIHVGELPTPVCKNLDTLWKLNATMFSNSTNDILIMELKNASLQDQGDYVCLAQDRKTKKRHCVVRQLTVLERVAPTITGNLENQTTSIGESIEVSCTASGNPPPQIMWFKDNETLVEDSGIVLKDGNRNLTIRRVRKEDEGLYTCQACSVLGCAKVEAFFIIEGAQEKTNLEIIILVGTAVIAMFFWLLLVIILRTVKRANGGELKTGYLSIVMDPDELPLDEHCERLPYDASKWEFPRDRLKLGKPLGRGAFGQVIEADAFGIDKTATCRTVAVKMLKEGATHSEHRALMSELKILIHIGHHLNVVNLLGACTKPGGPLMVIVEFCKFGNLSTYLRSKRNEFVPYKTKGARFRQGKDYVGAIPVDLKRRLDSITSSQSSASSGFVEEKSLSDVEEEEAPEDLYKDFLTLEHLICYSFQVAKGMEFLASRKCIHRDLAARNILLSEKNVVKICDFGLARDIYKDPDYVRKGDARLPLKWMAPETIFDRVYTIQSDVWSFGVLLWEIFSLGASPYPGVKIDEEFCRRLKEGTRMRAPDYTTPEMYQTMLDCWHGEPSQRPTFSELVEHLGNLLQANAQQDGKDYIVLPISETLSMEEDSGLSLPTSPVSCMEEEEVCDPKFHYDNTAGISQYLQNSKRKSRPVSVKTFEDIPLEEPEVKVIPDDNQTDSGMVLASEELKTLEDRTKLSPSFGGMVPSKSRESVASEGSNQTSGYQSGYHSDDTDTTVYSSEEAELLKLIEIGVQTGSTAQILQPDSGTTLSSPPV
Experimental: as §1
For data set [4], the target named is RIPK2 (Homo sapiens (Human), UniProt O43353). Nature of the data set: Kinase assay (33P FlashPlate) RIPK2. The settings on record: Table 3. Format: biochemical.
Sequence of RIPK2 (O43353 whole entry): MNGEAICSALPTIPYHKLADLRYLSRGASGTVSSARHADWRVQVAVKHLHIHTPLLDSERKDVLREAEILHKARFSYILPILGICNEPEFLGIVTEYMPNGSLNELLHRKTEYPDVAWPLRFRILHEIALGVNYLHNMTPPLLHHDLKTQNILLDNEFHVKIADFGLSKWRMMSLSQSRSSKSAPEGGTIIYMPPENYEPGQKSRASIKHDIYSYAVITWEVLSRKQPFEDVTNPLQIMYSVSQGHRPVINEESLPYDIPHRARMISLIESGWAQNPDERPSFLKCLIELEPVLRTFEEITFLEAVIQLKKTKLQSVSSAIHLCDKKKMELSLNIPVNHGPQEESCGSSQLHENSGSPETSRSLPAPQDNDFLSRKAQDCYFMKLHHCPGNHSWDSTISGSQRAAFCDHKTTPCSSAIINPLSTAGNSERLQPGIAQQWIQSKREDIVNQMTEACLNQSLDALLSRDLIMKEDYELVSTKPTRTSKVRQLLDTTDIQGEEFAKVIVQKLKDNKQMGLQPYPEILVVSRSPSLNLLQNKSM

We go through eleven compounds from patent US9416123B2, “Kinase modulators for the treatment of cancer” (Synovo GmbH, priority 2011, dated 2016).

Structures are written as SMILES. Bounds are passed on as bounds.

Sequence of B-Raf V600E (P15056 whole entry V600E): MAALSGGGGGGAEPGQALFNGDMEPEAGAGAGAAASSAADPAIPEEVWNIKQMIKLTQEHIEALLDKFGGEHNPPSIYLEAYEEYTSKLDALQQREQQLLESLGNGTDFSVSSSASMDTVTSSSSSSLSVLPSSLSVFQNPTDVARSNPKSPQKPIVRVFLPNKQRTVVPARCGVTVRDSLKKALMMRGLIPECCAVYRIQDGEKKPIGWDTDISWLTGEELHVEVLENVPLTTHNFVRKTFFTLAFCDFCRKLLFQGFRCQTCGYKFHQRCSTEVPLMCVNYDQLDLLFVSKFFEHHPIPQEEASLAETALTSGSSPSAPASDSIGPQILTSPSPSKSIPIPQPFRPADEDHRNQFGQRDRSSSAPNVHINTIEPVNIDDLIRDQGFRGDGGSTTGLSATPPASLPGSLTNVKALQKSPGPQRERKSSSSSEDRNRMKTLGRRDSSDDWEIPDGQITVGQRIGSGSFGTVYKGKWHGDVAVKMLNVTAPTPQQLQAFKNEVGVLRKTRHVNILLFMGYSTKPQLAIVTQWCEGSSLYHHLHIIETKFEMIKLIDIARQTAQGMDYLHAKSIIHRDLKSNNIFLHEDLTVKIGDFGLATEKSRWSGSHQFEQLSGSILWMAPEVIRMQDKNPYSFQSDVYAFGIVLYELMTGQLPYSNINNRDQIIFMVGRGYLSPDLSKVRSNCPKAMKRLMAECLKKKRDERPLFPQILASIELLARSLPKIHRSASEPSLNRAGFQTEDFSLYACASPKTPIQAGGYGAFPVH
Sequence of Src (P12931 whole entry, looked up): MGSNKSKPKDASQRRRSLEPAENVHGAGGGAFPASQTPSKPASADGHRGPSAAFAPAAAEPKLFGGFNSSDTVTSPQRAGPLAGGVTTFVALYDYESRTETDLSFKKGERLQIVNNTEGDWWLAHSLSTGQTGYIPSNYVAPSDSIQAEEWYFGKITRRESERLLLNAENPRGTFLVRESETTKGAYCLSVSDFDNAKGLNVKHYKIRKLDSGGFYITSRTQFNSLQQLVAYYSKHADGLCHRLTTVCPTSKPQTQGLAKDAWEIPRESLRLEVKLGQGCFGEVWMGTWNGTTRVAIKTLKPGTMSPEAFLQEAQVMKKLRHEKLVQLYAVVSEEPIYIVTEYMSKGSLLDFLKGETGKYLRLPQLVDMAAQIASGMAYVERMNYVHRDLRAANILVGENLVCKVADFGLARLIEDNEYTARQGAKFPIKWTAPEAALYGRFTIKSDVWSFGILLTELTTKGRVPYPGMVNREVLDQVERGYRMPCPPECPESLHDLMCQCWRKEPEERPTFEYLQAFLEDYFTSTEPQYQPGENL

`Clc1cc(Cl)c(N/N=C/c2ccncc2)c(Cl)c1` [Compound 3a]: the figures for the half-inhibitory concentration (IC50) in data set [1], in data set [2] and in data set [3] were 2 µM, 2.5 µM and 0.21 µM, respectively.
The like results for `Nc1c(-c2ccc(F)cc2)c(-c2ccncc2)nn1-c1ccccc1` [Compound 5, 4-(4-Fluorophenyl)-1-phenyl-3-(pyridine-4-yl)-1H-pyrazol-5-amine] were, in that order, 52 µM, 0.9 µM and 2.4 µM.
On to `Nc1c(-c2ccc(F)cc2)c(-c2ccncc2)nn1-c1c(Cl)cc(Cl)cc1Cl` [Compound 6], for which, in data set [4], the IC50 – broadly, the midpoint of a concentration-inhibition curve – stood at 0.041 µM.
`COc1ccc(-n2nc(-c3ccncc3)c(-c3ccc(F)cc3)c2N)cc1` [Compound 8]: the melting point – broadly, the temperature, or range, at which the solid turns liquid – came out at 200 °C. Also, the IC50 in data set [1] came to 23 µM. Besides, the IC50 in data set [2] is 0.86 µM. In data set [3], the half-maximal inhibitory concentration (IC50) was 1.9 µM.
`N#Cc1ccc(-n2nc(-c3ccncc3)c(-c3ccc(F)cc3)c2N)cc1` [Compound 11, 4-(5-Amino-4-(4-fluorophenyl)-3-(pyridine-4-yl)-1H-pyrazol-1-yl)benzonitrile]: the IC50 in data set [1] is more than 100 µM; in data set [2], 1.7 µM; in data set [3], 1.3 µM.
The corresponding values for `NC(=O)c1c(-c2ccncc2)nn(-c2c(Cl)cc(Cl)cc2Cl)c1N` [Compound 14, 5-Amino-3-(pyridin-4-yl)-1-(2,4,6-trichlorophenyl)-1H-pyrazole-4-carboxamide] are 6.4 µM, more than 100 µM and 31 µM.
Consider `CCOC(=O)c1c(-c2ccncc2)nn(-c2c(Cl)cc(Cl)cc2Cl)c1N` [Compound 15, Ethyl 5-amino-3-(pyridin-4-yl)-1-(2,4,6-trichlorophenyl)-1H-pyrazole-4-carboxylate], for which the IC50 in data set [1], in data set [2] and in data set [3] was more than 100 µM throughout.
In turn, `Nc1c(C(=O)O)c(-c2ccncc2)nn1-c1c(Cl)cc(Cl)cc1Cl` [Compound 16, 5-Amino-3-(pyridine-4-yl)-1-(2,4,6-trichlorophenyl)-1H-pyrazole-4-carboxylic acid] gave a melting point of 208 °C. Besides, the IC50 in data set [1] came to 55 µM. In data set [2], the IC50 is more than 100 µM. The IC50 in data set [3] stood at 43 µM.
Turning to `NC(=O)c1c(-c2ccncc2)nn(-c2ccccc2)c1N` [Compound 18, 5-Amino-1-phenyl-3-(pyridine-4-yl)-1H-pyrazole-4-carboxamide], the IC50 in data set [1] worked out at 19 µM; in data set [2] it was 64 µM; in data set [3], 48 µM.
The like results for `Nc1cc(-c2ccncc2)nn1-c1c(Cl)cc(Cl)cc1Cl` [Compound 19, 3-(Pyridin-4-yl)-1-(2,4,6-trichlorophenyl)-1H-pyrazol-5-amine] were, in that order, more than 100 µM, more than 100 µM and 87 µM.
The corresponding values for `Fc1ccc(-c2cn(-c3ccc(C(F)(F)F)cc3)nc2-c2ccncc2)cc1` [Compound 20] are 12 µM, 2.7 µM and 27 µM.
